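A five-concentration, 48-hour dose response in 96-well plates underlies each endpoint, interpolated linearly between surrounding concentrations. Definition used: TGI = concentration required for complete inhibition of growth.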
Experiments:
Assay in all cases: inhibition of tumour cell growth, NCI panel, 48 h
A549 NSCLC = test system: A549 NSCLC
RPMI-8226 leukemia = test system: RPMI-8226 leukemia
KM20L2 colon = test system: KM20L2 colon
SNB-19 CNS = test system: SNB-19 CNS
SNB-78 CNS = test system: SNB-78 CNS
HOP-92 NSCLC = test system: HOP-92 NSCLC
EKVX NSCLC = test system: EKVX NSCLC
HCT-15 colon = test system: HCT-15 colon
786-0 renal = test system: 786-0 renal
SW-620 colon = test system: SW-620 colon
UO-31 renal = test system: UO-31 renal
HCC-2998 colon = test system: HCC-2998 colon
SF-539 CNS = test system: SF-539 CNS
SN12C renal = test system: SN12C renal
CCRF-CEM leukemia = test system: CCRF-CEM leukemia
HOP-62 NSCLC = test system: HOP-62 NSCLC
IGROV1 ovarian = test system: IGROV1 ovarian
TK-10 renal = test system: TK-10 renal
A498 renal = test system: A498 renal
NCI-H522 lung = test system: NCI-H522 lung
SK-MEL-5 melanoma = test system: SK-MEL-5 melanoma
HT29 colon = test system: HT29 colon
DLD-1 colon = test system: DLD-1 colon
NCI-H460 lung = test system: NCI-H460 lung
SK-MEL-2 melanoma = test system: SK-MEL-2 melanoma
XF 498 CNS = test system: XF 498 CNS
SK-OV-3 ovarian = test system: SK-OV-3 ovarian
SK-MEL-28 melanoma = test system: SK-MEL-28 melanoma
OVCAR-4 ovarian = test system: OVCAR-4 ovarian
HOP-18 NSCLC = test system: HOP-18 NSCLC
KM12 colon = test system: KM12 colon
OVCAR-5 ovarian = test system: OVCAR-5 ovarian
LXFL 529 NSCLC = test system: LXFL 529 NSCLC
CAKI-1 renal = test system: CAKI-1 renal
UACC-257 melanoma = test system: UACC-257 melanoma
DMS 114 small cell lung = test system: DMS 114 small cell lung
HCT-116 colon = test system: HCT-116 colon
OVCAR-8 ovarian = test system: OVCAR-8 ovarian
MALME-3M melanoma = test system: MALME-3M melanoma
M14 melanoma = test system: M14 melanoma
OVCAR-3 ovarian = test system: OVCAR-3 ovarian
RXF 393 renal = test system: RXF 393 renal
U251 CNS = test system: U251 CNS
SF-295 CNS = test system: SF-295 CNS
SNB-75 CNS = test system: SNB-75 CNS
ACHN renal = test system: ACHN renal
K-562 leukemia = test system: K-562 leukemia
UACC-62 melanoma = test system: UACC-62 melanoma
MOLT-4 leukemia = test system: MOLT-4 leukemia
NCI-H23 lung = test system: NCI-H23 lung
LOX IMVI melanoma = test system: LOX IMVI melanoma
COLO 205 colon = test system: COLO 205 colon
SF-268 CNS = test system: SF-268 CNS
DMS 273 small cell lung = test system: DMS 273 small cell lung
NCI-H226 lung = test system: NCI-H226 lung
HL-60(TB) leukemia = test system: HL-60(TB) leukemia
M19-MEL melanoma = test system: M19-MEL melanoma

CCCOP1(=O)C=CC(Cl)=C(C)C1 (centres undefined)
TGI (A549 NSCLC): > 100 µM
TGI (RPMI-8226 leukemia): 60.1 µM
TGI (KM20L2 colon): > 100 µM
TGI (SNB-19 CNS): > 100 µM
TGI (SNB-78 CNS): > 100 µM
TGI (HOP-92 NSCLC): > 100 µM
TGI (EKVX NSCLC): > 88 µM
TGI (HCT-15 colon): 39.7 µM
TGI (786-0 renal): 76 µM
TGI (SW-620 colon): 42.2 µM
TGI (UO-31 renal): > 100 µM
TGI (HCC-2998 colon): > 100 µM
TGI (SF-539 CNS): > 68.2 µM
TGI (SN12C renal): > 100 µM
TGI (CCRF-CEM leukemia): 19.7 µM
TGI (HOP-62 NSCLC): > 100 µM
TGI (IGROV1 ovarian): > 100 µM
TGI (TK-10 renal): > 100 µM
TGI (A498 renal): > 100 µM
TGI (NCI-H522 lung): 31.6 µM
TGI (SK-MEL-5 melanoma): > 100 µM
TGI (HT29 colon): > 100 µM
TGI (DLD-1 colon): 47.9 µM
TGI (NCI-H460 lung): > 100 µM
TGI (SK-MEL-2 melanoma): > 89.5 µM
TGI (XF 498 CNS): > 93.1 µM
TGI (SK-OV-3 ovarian): > 100 µM
TGI (SK-MEL-28 melanoma): 42.8 µM
TGI (OVCAR-4 ovarian): > 100 µM
TGI (HOP-18 NSCLC): > 100 µM
TGI (KM12 colon): 50.4 µM
TGI (OVCAR-5 ovarian): > 100 µM
TGI (LXFL 529 NSCLC): > 61.1 µM
TGI (CAKI-1 renal): > 95.9 µM
TGI (UACC-257 melanoma): 64.3 µM
TGI (DMS 114 small cell lung): 89.3 µM
TGI (HCT-116 colon): 33.5 µM
TGI (OVCAR-8 ovarian): 47.5 µM
TGI (MALME-3M melanoma): 52.1 µM
TGI (M14 melanoma): > 61.3 µM
TGI (OVCAR-3 ovarian): > 75.2 µM
TGI (RXF 393 renal): 33.4 µM
TGI (U251 CNS): > 100 µM
TGI (SF-295 CNS): > 100 µM
TGI (SNB-75 CNS): > 100 µM
TGI (ACHN renal): > 66.5 µM
TGI (K-562 leukemia): > 31.6 µM
TGI (UACC-62 melanoma): 52.2 µM
TGI (MOLT-4 leukemia): 22.2 µM
TGI (NCI-H23 lung): > 100 µM
TGI (LOX IMVI melanoma): > 100 µM
TGI (COLO 205 colon): 33.9 µM
TGI (SF-268 CNS): > 100 µM

O=C(Nc1nc2ncn(CCNCCn3cnc4nc(NC(=O)c5ccccc5)[nH]c(=O)c43)c2c(=O)[nH]1)c1ccccc1
TGI (A549 NSCLC): > 100 µM
TGI (RPMI-8226 leukemia): > 100 µM
TGI (KM20L2 colon): > 100 µM
TGI (SNB-19 CNS): > 100 µM
TGI (SNB-78 CNS): > 100 µM
TGI (HOP-92 NSCLC): > 100 µM
TGI (EKVX NSCLC): > 100 µM
TGI (HCT-15 colon): > 100 µM
TGI (786-0 renal): > 100 µM
TGI (SW-620 colon): > 100 µM
TGI (UO-31 renal): > 100 µM
TGI (HCC-2998 colon): > 100 µM
TGI (SF-539 CNS): > 100 µM
TGI (SN12C renal): > 100 µM
TGI (CCRF-CEM leukemia): > 100 µM
TGI (HOP-62 NSCLC): > 100 µM
TGI (IGROV1 ovarian): > 100 µM
TGI (TK-10 renal): > 100 µM
TGI (DMS 273 small cell lung): > 100 µM
TGI (A498 renal): > 100 µM
TGI (NCI-H522 lung): > 100 µM
TGI (SK-MEL-5 melanoma): > 100 µM
TGI (HT29 colon): > 100 µM
TGI (DLD-1 colon): > 100 µM
TGI (NCI-H460 lung): > 100 µM
TGI (SK-MEL-2 melanoma): > 100 µM
TGI (XF 498 CNS): > 100 µM
TGI (SK-OV-3 ovarian): > 100 µM
TGI (SK-MEL-28 melanoma): > 100 µM
TGI (OVCAR-4 ovarian): > 100 µM
TGI (HOP-18 NSCLC): > 100 µM
TGI (KM12 colon): > 100 µM
TGI (OVCAR-5 ovarian): > 100 µM
TGI (NCI-H226 lung): > 100 µM
TGI (LXFL 529 NSCLC): > 100 µM
TGI (HL-60(TB) leukemia): > 100 µM
TGI (CAKI-1 renal): > 100 µM
TGI (UACC-257 melanoma): > 100 µM
TGI (HCT-116 colon): > 100 µM
TGI (OVCAR-8 ovarian): > 100 µM
TGI (MALME-3M melanoma): > 100 µM
TGI (M14 melanoma): > 100 µM
TGI (OVCAR-3 ovarian): > 100 µM
TGI (M19-MEL melanoma): > 100 µM
TGI (RXF 393 renal): > 100 µM
TGI (U251 CNS): > 100 µM
TGI (SF-295 CNS): > 100 µM
TGI (SNB-75 CNS): > 100 µM
TGI (ACHN renal): > 100 µM
TGI (K-562 leukemia): > 100 µM
TGI (UACC-62 melanoma): > 100 µM
TGI (MOLT-4 leukemia): > 100 µM
TGI (NCI-H23 lung): > 100 µM
TGI (LOX IMVI melanoma): > 100 µM
TGI (COLO 205 colon): > 100 µM
TGI (SF-268 CNS): > 100 µM

— PubChem BioAssay (NCI)
